The values that follow are results of earlier work, collected in US11717549B2, “Steviol glycoside solubility enhancers” (CARGILL, INCORPORATED, priority 2017, dated 2023).

The conditions of the first data set: temperature 14 ° C.; cited from earlier work.
For the molecule `O=C(O)c1ccc(O)c(O)c1` [3,4-dihydroxybenzoic acid], the “solubility (ppm)” value is on record as 1.79E+04 ppm. Turning to `O=C(O)c1cccc(Cl)c1C(=O)O` [3-chlorophthalic acid], the “solubility (ppm)” value is recorded as 2.08E+04 ppm.

The data set is the same for the next values; noted with them: temperature 15 ° C.; cited from earlier work.
Consider `O=C(O)c1ccnc(C(=O)O)c1C(=O)O` [2,3,4-pyridinetricarboxylic acid], for which the “solubility (ppm)” value is 1.19E+04 ppm.

Turning to `O=C(O)c1c(Br)cc(Br)cc1Br` [2,4,6-tribromobenzoic acid], the “solubility (ppm)” value is listed as 3.49E+03 ppm.

Staying with this data set, now noted: temperature 16 ° C.; cited from earlier work.
In the case of `O=C(O)c1cc(C(=O)O)cc(C(=O)O)c1` [1,3,5-benzenetricarboxylic acid], the “solubility (ppm)” value is reported as 3.79E+03 ppm.

Staying with this data set, now noted: temperature 18 ° C.; cited from earlier work.
Regarding “1,5-anthraquinone disulfonic acid anilide”, the “solubility (ppm)” value was 3.97E+03 ppm.

For 1,7-chloroanthraquinone sulfonic acid, the “solubility (ppm)” value is 1.67E+05 ppm. On to `O=C1c2cccc(S(=O)(=O)O)c2C(=O)c2cccc(S(=O)(=O)O)c21` [1,5-anthraquinone disulfonic acid], for which the “solubility (ppm)” value is given as 2.86E+05 ppm.

As for `O=C1c2cccc(S(=O)(=O)O)c2C(=O)c2cccc(Cl)c21` [1,5-chloroanthraquinone sulfonic acid], the “solubility (ppm)” value is listed as 2.50E+05 ppm. With `O=C1c2cc(S(=O)(=O)O)ccc2C(=O)c2c1cccc2S(=O)(=O)O` [1,6-anthraquinone disulfonic acid], the “solubility (ppm)” value is reported as 3.33E+05 ppm. For `O=C1c2cc(S(=O)(=O)O)ccc2C(=O)c2c(Cl)cccc21` [1,6-chloroanthraquinone sulfonic acid], the “solubility (ppm)” value is 1.67E+05 ppm. Consider `O=C1c2cccc(S(=O)(=O)Nc3ccccc3)c2C(=O)c2c1cccc2S(=O)(=O)Nc1ccccc1` [1,8-anthraquinone disulfonic acid anilide], for which the “solubility (ppm)” value was 2.27E+04 ppm. Regarding `O=C1c2cccc(S(=O)O)c2C(=O)c2c1cccc2S(=O)O` [1,8-anthraquinonedisulfinic acid], the “solubility (ppm)” value is 2.86E+05 ppm.

Still in this data set, the particulars now being: temperature 19 ° C.; cited from earlier work.
Consider `O=C(O)c1cccc(C(=O)O)c1C(=O)O` [1,2,3-benzenetricarboxylic acid], for which the “solubility (ppm)” value is recorded as 2.97E+04 ppm.

Still in this data set, the particulars now being: temperature 20 ° C.; cited from earlier work.
For the molecule `O=C(O)C(O)c1ccccc1` (racemic) [alpha-hydroxybenzeneacetic acid, (±)], the “solubility (ppm)” value is 1.21E+05 ppm. Consider `Cc1cc(S(=O)(=O)O)ccc1N` [4-amino-3-methylbenzene sulfonic acid], for which the “solubility (ppm)” value is listed as 4.98E+03 ppm.

The data set is the same for the next values; noted with them: temperature 21 ° C.; cited from earlier work.
Turning to `CC(=O)Oc1ccccc1C(=O)OC[S+](C)[O-]` (centres unmarked) [2-(acetoxy)-benzoic acid, (methylsulfinyl)methyl ester], the “solubility (ppm)” value was 4.21E+03 ppm.

The same data set, now with this note: temperature 25 ° C.; cited from earlier work.
As to `CCCCC(C)C(=O)O` (racemic) [2-methylhexanoic acid], the “solubility (ppm)” value is on record as 6.07E+03 ppm. For `CCC(C)CCC(=O)O` (racemic) [4-methylhexanoic acid], the “solubility (ppm)” value was 3.56E+03 ppm. As to `CC1(C)[C@@H](C(=O)O)CC[C@@]1(C)C(=O)O` (relative stereo) [cis-1,2,2-trimethyl-1,3-cyclopentanedicarboxylic acid, (1R)], the “solubility (ppm)” value is on record as 7.54E+03 ppm.

In the case of `CCCCC(C)(C)C(=O)O` [2,2-dimethylhexanoic acid], the “solubility (ppm)” value is on record as 3.44E+03 ppm. For the molecule `O=C(O)c1cccnc1C(=O)O` [2,3-pyridinedicarboxylic acid], the “solubility (ppm)” value is listed as 1.09E+04 ppm. With `O=C(O)c1ccc(O)cc1O` [2,4-dihydroxybenzoic acid], the “solubility (ppm)” value is given as 5.96E+03 ppm. For the molecule `O=C(O)c1ccc([N+](=O)[O-])cc1[N+](=O)[O-]` [2,4-dinitrobenzoic acid], the “solubility (ppm)” value is recorded as 1.79E+04 ppm. Take `CC(=O)Oc1ccccc1C(=O)O` [2-(acetyloxy)benzoic acid]: the “solubility (ppm)” value is recorded as 4.58E+03 ppm. As for `O=C(O)c1ccccc1C(F)(F)F` [2-(trifluoromethyl)benzoic acid], the “solubility (ppm)” value is given as 4.78E+03 ppm. On to `CCCC=C(CC)C(=O)O` [2-ethyl-2-hexenoic acid], for which the “solubility (ppm)” value is given as 6.06E+03 ppm. In the case of `CCC(C)(CC)C(=O)O` [2-ethyl-2-methylbutanoic acid], the “solubility (ppm)” value is reported as 9.69E+03 ppm. For the molecule `O=C(O)c1ccccc1F` [2-fluorobenzoic acid], the “solubility (ppm)” value is recorded as 7.15E+03 ppm. As to `COc1ccccc1C(=O)O` [2-methoxybenzoic acid], the “solubility (ppm)” value is 4.18E+03 ppm.

Regarding `CCCCC=C(C)C(=O)O` [2-methyl-2-heptenoic acid], the “solubility (ppm)” value is reported as 4.64E+03 ppm. As for `CCCC=CC(C)C(=O)O` (centres unmarked) [2-methyl-3-heptenoic acid], the “solubility (ppm)” value is given as 4.64E+03 ppm. In the case of `CCC=CCC(C)C(=O)O` (centres unmarked) [2-methyl-4-heptenoic acid], the “solubility (ppm)” value is on record as 4.64E+03 ppm.

On to `O=C(O)c1ccc([N+](=O)[O-])c([N+](=O)[O-])c1` [3,4-dinitrobenzoic acid], for which the “solubility (ppm)” value was 6.66E+03 ppm.

As for `COc1c(Cl)ccc(Cl)c1C(=O)O` [3,6-dichloro-2-methoxybenzoic acid], the “solubility (ppm)” value is given as 4.48E+03 ppm. In the case of `O=C(O)c1cccc(Br)c1[N+](=O)[O-]` [3-bromo-2-nitrobenzoic acid], the “solubility (ppm)” value is given as 7.36E+03 ppm.

Take `CCCC(=CC(=O)O)CC` [3-ethyl-2-hexenoic acid]: the “solubility (ppm)” value is given as 6.06E+03 ppm. For the molecule `CCCC=CCC(=O)O` [3-heptenoic acid], the “solubility (ppm)” value was 5.37E+03 ppm.

Consider `O=C(O)c1cc(=O)c(O)c(C(=O)O)o1` [3-hydroxy-4-oxo-4H-pyran-2,6-dicarboxylic acid], for which the “solubility (ppm)” value is given as 8.33E+03 ppm. Turning to `CCCCC(C)=CC(=O)O` [3-methyl-2-heptenoic acid], the “solubility (ppm)” value was 4.64E+03 ppm. As for `CCCC=C(C)CC(=O)O` [3-methyl-3-heptenoic acid], the “solubility (ppm)” value is listed as 4.64E+03 ppm.

As for `CCC=CC(C)CC(=O)O` (centres unmarked) [3-methyl-4-heptenoic acid], the “solubility (ppm)” value is 4.64E+03 ppm. In the case of `CCCC(C)CC(=O)O` (centres unmarked) [3-methylhexanoic acid], the “solubility (ppm)” value was 4.80E+03 ppm. Consider `CC(CCCCCC(=O)O)CC(=O)O` (centres unmarked) [3-methylnonanedioic acid], for which the “solubility (ppm)” value is 5.53E+03 ppm.

With `O=C(O)c1cccc([N+](=O)[O-])c1C(=O)O` [3-nitrophthalic acid], the “solubility (ppm)” value was 1.97E+04 ppm. Turning to `CC(C)(C)C(CCC(=O)O)CC(=O)O` (centres unmarked) [3-tert-butyl adipic acid], the “solubility (ppm)” value is given as 6.14E+03 ppm.

Still in this data set, the particulars now being: temperature 100 ° C.; cited from earlier work.
`Cc1cccc(C(=O)O)c1O` [2-hydroxy-3-methylbenzoic acid]: the “solubility (ppm)” value was 1.15E+04 ppm. Regarding `Cc1ccc(C(=O)O)c(O)c1` [2-hydroxy-4-methylbenzoic acid], the “solubility (ppm)” value is 1.00E+04 ppm. With `Cc1ccc(O)c(C(=O)O)c1` [2-hydroxy-5-methylbenzoic acid], the “solubility (ppm)” value is 2.14E+04 ppm. In the case of `O=C(O)c1cccc(C(=O)O)c1O` [2-hydroxyisophthalic acid], the “solubility (ppm)” value is reported as 2.57E+04 ppm. `Cc1ccc(C(=O)O)cc1O` [3-hydroxy-4-methylbenzoic acid]: the “solubility (ppm)” value was 4.17E+04 ppm.

Staying with this data set, now noted: temperature not given; cited from earlier work.
On to `O=C(O)c1c(Cl)cccc1Cl` [2,6-dichlorobenzoic acid], for which the “solubility (ppm)” value is on record as 1.39E+04 ppm. `O=C(O)c1c(O)cccc1O` [2,6-dihydroxybenzoic acid]: the “solubility (ppm)” value is 9.47E+03 ppm.
